Test results taken from ChEMBL document CHEMBL1201862, “PubChem BioAssay data set” (2004).
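Compound exposure: 48 hours, 5 concentrations, 96-well plates. Here, GI50 denotes the concentration required for 50% inhibition of growth.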 Activity calls are given as the source filed them. Cut-off read from the data, not from the text of the source: active = GI50 up to about 1.1 µM and inactive = higher.

Tests used:
Test in all cases: growth of human tumour cells (NCI), 48 h
MDA-N = tested on: MDA-N
MDA-MB-435 = tested on: MDA-MB-435
SNB-78 = tested on: SNB-78
DLD-1 = tested on: DLD-1
HOP-18 = tested on: HOP-18
XF498 = tested on: XF498
DMS-273 = tested on: DMS-273
RXF 631 = tested on: RXF 631
BT-549 = tested on: BT-549

Compound | GI50 (MDA-N) | GI50 (MDA-MB-435) | GI50 (SNB-78) | GI50 (DLD-1) | GI50 (HOP-18) | GI50 (XF498) | GI50 (DMS-273) | GI50 (RXF 631) | GI50 (BT-549)
CCCCSCCC(N)P(=O)(O)O (centres undefined) | > 100 µM (inactive) | > 100 µM (inactive) |  |  |  |  |  |  | 
O=C(OCCO)C1CC2CC1C1(C2)OCCO1 (centres undefined) |  |  | > 100 µM (inactive) | > 100 µM (inactive) | > 100 µM (inactive) | > 100 µM (inactive) | > 100 µM (inactive) |  | 
CCN(CC)Cc1cc(Nc2c3ccccc3nc3c2[nH]c2ccccc23)ccc1O |  |  | 2 µM (inactive) | 1.25 µM (inactive) | 1.6 µM (inactive) | 1.76 µM (inactive) | 0.565 µM (active) | 1.8 µM (inactive) | 
c1ccc(C2=NNC3c4ccccc4-c4ccccc4N3C2)cc1 (centres undefined) | 33.5 µM (inactive) | 27.8 µM (inactive) |  |  |  |  |  |  | 33.3 µM (inactive)
O=S(=O)(c1ccc(I)cc1)N(c1ccccc1)S(=O)(=O)C(F)(F)C(F)(F)C(F)(F)C(F)(F)F | 60.1 µM (inactive) | > 100 µM (inactive) |  |  |  |  |  |  | > 100 µM (inactive)
COc1cccc(CCn2c(N)c(-c3cc(Cl)cc(Cl)c3)c3ccc([N+](=O)[O-])cc3c2=O)c1 | 4.53 µM (inactive) | 3.57 µM (inactive) |  |  |  |  |  |  | 3.53 µM (inactive)
c1ccc([P+](Cc2csnn2)(c2ccccc2)c2ccccc2)cc1 |  |  | > 100 µM (inactive) | > 100 µM (inactive) | > 100 µM (inactive) | > 100 µM (inactive) | > 100 µM (inactive) |  | 
NCCCCCC(CCN)SCC1OC(n2cnc3c(N)ncnc32)C(O)C1O (centres undefined) |  |  | > 1020 µM (inactive) | > 1500 µM (inactive) | 6.76 µM (inactive) | > 15 µM (inactive) | 369 µM (inactive) |  | 
O=C1C(Cl)N(c2ccc([N+](=O)[O-])cc2)C1c1c[nH]c2ccccc12 (centres undefined) |  |  |  | 38.1 µM (inactive) |  | > 100 µM (inactive) |  |  | 
Cc1nc2c(n1C)C(=O)c1nc(CBr)[nH]c(=O)c1C2=O |  |  |  | > 100 µM (inactive) | > 100 µM (inactive) | > 10 µM (inactive) | > 100 µM (inactive) |  | 
CC(=O)Oc1ccccc1C(=O)C1c2cccc(O)c2C(=O)c2c(O)cccc21 |  |  | 1.27 µM (inactive) | 1.23 µM (inactive) | 2.16 µM (inactive) | 0.561 µM (active) | 1.24 µM (inactive) | 3.01 µM (inactive) | 
CCc1n[nH]c(=O)n1CC | > 100 µM (inactive) | > 100 µM (inactive) |  |  |  |  |  |  | > 100 µM (inactive)
COC(=O)C1=C(C)C(=O)[C@H]2C(C(=O)OC)CCCC[C@@H]12 (some centres undefined) |  |  | > 100 µM (inactive) | > 100 µM (inactive) | > 100 µM (inactive) | 89.9 µM (inactive) | 90.2 µM (inactive) |  | 
COc1ccccc1-c1cc(O)c2cc(C)cnc2n1 |  | 3.8 µM (inactive) |  |  |  |  |  |  | 45.5 µM (inactive)
COc1ccc(-c2cc(-c3ccccc3)c3c(n2)-c2ccccc2NC(=O)C3)cc1 | 30 µM (inactive) | > 100 µM (inactive) |  |  |  |  |  |  | > 100 µM (inactive)
Cc1[nH]c(=O)[nH]c(=O)c1/C=C/C(=O)NC(CO)CC(C)C (centres undefined) |  |  | 373 µM (inactive) | > 375 µM (inactive) | 254 µM (inactive) | 60 µM (inactive) | > 375 µM (inactive) |  | 
CC(=O)N1CN2C(=O)CCC2c2ccccc21 (centres undefined) | > 100 µM (inactive) | > 100 µM (inactive) |  |  |  |  |  |  | 
O=NN(CC1(O)OCC(O)C(O)C1O)C(Cc1c[nH]c2ccccc12)C(=O)O (centres undefined) |  |  | > 100 µM (inactive) | > 100 µM (inactive) |  | > 100 µM (inactive) | > 100 µM (inactive) | > 100 µM (inactive) | 

Compound | GI50 (MDA-N) | GI50 (MDA-MB-435) | GI50 (SNB-78) | GI50 (DLD-1) | GI50 (HOP-18) | GI50 (XF498) | GI50 (DMS-273) | GI50 (RXF 631) | GI50 (BT-549)
O=C(CC1Sc2ccccc2NC1=O)Nc1ccccc1[N+](=O)[O-] (centres undefined) |  |  | > 100 µM (inactive) | > 100 µM (inactive) | > 100 µM (inactive) | > 100 µM (inactive) | > 100 µM (inactive) | > 100 µM (inactive) | 
O=C(O)Cc1ccc(N2N=C(c3ccccc3)CC2=O)cc1 | > 100 µM (inactive) |  |  |  |  |  |  |  | > 100 µM (inactive)
CC1(Cl)CC2C(CC1Sc1nnnn1-c1ccccc1)C2(C)C (centres undefined) |  |  | 92.7 µM (inactive) | > 100 µM (inactive) |  |  | 71.9 µM (inactive) |  | 
c1ccc2c(NCCCCCCCCNc3cccc4ccccc34)cccc2c1 |  |  | 46.8 µM (inactive) | 34.2 µM (inactive) | 20.1 µM (inactive) | 78.9 µM (inactive) | 29.6 µM (inactive) | 18.9 µM (inactive) | 
COc1c(O)c(C=O)c2c(O)c(-c3c(C)cc4c(C(C)C)c(OC)c(O)c(C=O)c4c3O)c(C)cc2c1C(C)C [6,6'-METHOXYGOSSYPOL] |  |  | 25.3 µM (inactive) | 4.38 µM (inactive) |  |  | 5.11 µM (inactive) |  | 
COc1cccc(NC(=O)CC(=O)NN2C(=O)/C(=C/c3ccc(N(CCC#N)CCC#N)cc3)N=C2c2cc([N+](=O)[O-])ccc2Cl)c1 |  |  | > 100 µM (inactive) | 60.3 µM (inactive) |  | 57.7 µM (inactive) | > 100 µM (inactive) | > 100 µM (inactive) | 
COc1cccc(CC2Cc3ccccc3CC(=O)N2)c1 (centres undefined) | 48.1 µM (inactive) | 32.7 µM (inactive) |  |  |  |  |  |  | 28 µM (inactive)
[N-]=[N+]=NC(c1cn(C2CC(O)C(CO)O2)c(=O)[nH]c1=O)C(Br)Br (centres undefined) |  |  | > 100 µM (inactive) | > 100 µM (inactive) | > 100 µM (inactive) |  | > 100 µM (inactive) |  | 
Cc1n(CC(=O)c2ccc([N+](=O)[O-])cc2)c2c([n+]1CC(C)C)C(=O)c1ccccc1C2=O |  |  | < 0.0137 µM (active) | < 0.0394 µM (active) | < 0.0184 µM (active) |  | < 0.01 µM (active) |  | 
COc1ccc(CCn2nccc2C)cc1 | > 100 µM (inactive) | > 100 µM (inactive) |  |  |  |  |  |  | > 100 µM (inactive)
Clc1ccc(C2ON=C(c3ccccc3)N2C23CC4CC(CC(C4)C2)C3)c(Cl)c1 (centres undefined) | > 10 µM (inactive) | > 10 µM (inactive) |  |  |  |  |  |  | 
COc1ccc(C(O)CNC(=O)c2ccccc2)cc1 (centres undefined) | > 100 µM (inactive) | > 100 µM (inactive) |  |  |  |  |  |  | > 100 µM (inactive)
Cc1ccc(N2Cc3c(ccc4ccccc34)OP2(=S)N2CCCC2)cc1 (centres undefined) |  |  | > 100 µM (inactive) | > 100 µM (inactive) | > 100 µM (inactive) | > 100 µM (inactive) | > 100 µM (inactive) |  | 
C=C1C2=C(CCCC2)C(=O)OC12CCCCC2 |  |  |  | 92.7 µM (inactive) | > 100 µM (inactive) | 97.5 µM (inactive) | 51.4 µM (inactive) | 72.1 µM (inactive) | 
Cc1ccc(SSCCCCCS(=O)O)cc1 |  |  | 25.4 µM (inactive) | 33.9 µM (inactive) |  | 18.6 µM (inactive) |  | 25.9 µM (inactive) | 
COc1ccccc1/C=C1\S/C(=N/Nc2nc(C)c(C(C)=O)s2)NC1=O | 29.9 µM (inactive) | 32.6 µM (inactive) |  |  |  |  |  |  | 
COc1ccccc1NC(=O)C(=O)C(C(=O)c1ccccc1F)C1OC(=O)c2ccccc21 (centres undefined) |  |  | 25.5 µM (inactive) | 33.3 µM (inactive) |  | 14.1 µM (inactive) | 23.9 µM (inactive) | 18.7 µM (inactive) | 
